# Tested on: patients with fasting triglyceride levels >200 mg/dl and <500 mg/dl despite statin therapy
# Experiment: 12-week placebo-controlled study of >96% E-EPA: fasting triglycerides (TG), incl. TG goal
# Format: in vivo, human
# Conditions: for Median reduction in triglycerides compared to baseline / TG Median % chg from BL / TG, Diff from pbo (Hodges-Lehmann median difference) / TG, EOT (Week 12 endpoint) median / TG Diff from pbo (median % chg, Hodges-Lehmann) / TG EOT Median / Fasting Triglycerides, Week 12 EP Median (IQR): MITT; for Median reduction in triglycerides compared to baseline / Percentage Achieving TG Goal (less than 150 mg/dL): Week 12; for Fasting Triglycerides, Percent change from Baseline, Median (IQR) / Fasting Triglycerides, Difference from placebo, Estimated median: Week 12, MITT; for Fasting Triglycerides, Difference from placebo, Estimated median: difference in percent change
# Method: A multi-center, placebo-controlled, randomized, double-blind, 12-week study was performed to evaluate the efficacy and safety of >96% E-EPA in patients with fasting triglyceride levels >200 mg/dl and <500 mg/dl despite statin therapy (the mean of two qualifying entry values needed to be >185 mg/dl and at least one of the values needed to be >200 mg/dl). The primary objective of the study was to determine the efficacy of >96% E-EPA 2 g daily and 4 g daily, compared to placebo, in lowering fasting TG levels in patients with high risk for cardiovascular disease and with fasting TG levels 200 mg/dl and <500 mg/dl, despite treatment to LDL-C goal on statin therapy. The population for this study was men and women >18 years of age with a body mass index ≤45 kg/m^2 with fasting TG levels greater than or equal to 200 mg/dl and less than 500 mg/dl and on a stable does of statin therapy (with or without ezetimibe). The statin was atorvostatin, rosuvastatin or simvastatin. The dose of statin must have been stable for ≥4 weeks prior to the LDL-C/TG baseline qualifying measurement for randomization. The statin dose was optimized such that the patients are at their LDL-C goal at the LDL-C/TG baseline qualifying measurements. The same statin at the same dose was continued until the study ended. Approximately 702 patients were randomized at approximately 80 centers in the U.S. The study was a 18- to 20-week, Phase 3, multi-center study consisting of 2 study periods: (1) A 6- to 8-week screening period that included a diet and lifestyle stabilization, a non-statin lipid-altering treatment washout, and an LDL-C and TG qualifying period and (2) A 12-week, double-blind, randomized, placebo-controlled treatment period. After confirmation of qualifying fasting LDL-C and TG values, eligible patients entered a 12-week, randomized, double-blind treatment period. At Visit 4 (Week 0), patients were randomly assigned to 1 of the following treatment groups: • >96% E-EPA 2 g daily, • >96% E-EPA 4 g daily, or • Placebo. During the double-blind treatment period, patients were to take 2 capsules (>96% E-EPA or matching placebo) in the morning and 2 capsules in the evening for a total of 4 capsules per day. • Patients in the >96% E-EPA 2 g/day treatment group received 1>96% E-EPA 1 g capsule and 1 matching placebo capsule in the morning and in the evening. • Patients in the >96% E-EPA 4 g/day treatment group received 2>96% E-EPA 1 g capsules in the morning and evening. The primary efficacy variable for the double-blind treatment period was percent change in TG from baseline to Week 12 endpoint. The secondary efficacy variables for the double-blind treatment period included the following: • Percent changes in total cholesterol (TC), high-density lipoprotein cholesterol (HDL-C), LDL-C, calculated non-HDL-C, and very low-density lipoprotein cholesterol (VLDL-C) from baseline to Week 12 endpoint; • Percent change in very low-density lipoprotein TG from baseline to Week 12; • Percent changes in apolipoprotein A-I (Apo A-1), apolipoprotein B (Apo B), and Apo A-1/Apo B ratio from baseline to Week 12; • Percent changes in lipoprotein(a) from baseline to Week 12; • Percent changes in LDL particle number and size, measured by nuclear magnetic resonance, from baseline to Week 12; • Percent change in remnant-like particle cholesterol from baseline to Week 12; • Percent change in oxidized LDL from baseline to Week 12; • Changes in FPG and HbA1c from baseline to Week 12; • Change in insulin resistance, as assessed by the homeostasis model index insulin resistance, from baseline to Week 12; • Percent change in lipoprotein associated phospholipase A2 (Lp-PLA2) from baseline to Week 12; • Change in intracellular adhesion molecule-1 from baseline to Week 12; • Change in interleukin-2 from baseline to Week 12; • Change in plasminogen activator inhibitor-1 from baseline to Week 12. […]
# [1] = AMR 101 2 g + statin, Atorva subgroup
# [2] = AMR 101 2 g + statin, Rosuva subgroup
# [3] = AMR 101 2 g + statin, Simva subgroup
# [4] = AMR 101 2 g + statin, Statin Potency High
# [5] = AMR 101 2 g + statin, Statin Potency Low
# [6] = AMR 101 2 g + statin, Statin Potency Medium
# [7] = AMR 101 2 g + statin, Diabetes No, Week 12 endpoint
# [8] = AMR 101 2 g + statin, Diabetes Yes, Week 12 endpoint
# [9] = AMR 101 2 g + statin, Non-statin Washout No, Week 12 endpoint
# [10] = AMR 101 2 g + statin, Non-statin Washout Yes, Week 12 endpoint
# [11] = AMR 101 2 g + statin, baseline TG tertile Highest (≥289.5 mg/dL), Week 12 endpoint
# [12] = AMR 101 2 g + statin, baseline TG tertile Lowest (<230.5 mg/dL), Week 12 endpoint
# [13] = AMR 101 2 g + statin, baseline TG tertile Middle (230.5 to <289.5 mg/dL), Week 12 endpoint
# [14] = AMR 101 4 g + statin, Atorva subgroup
# [15] = AMR 101 4 g + statin, Rosuva subgroup
# [16] = AMR 101 4 g + statin, Simva subgroup
# [17] = AMR 101 4 g + statin, Statin Potency High
# [18] = AMR 101 4 g + statin, Statin Potency Low
# [19] = AMR 101 4 g + statin, Statin Potency Medium
# [20] = AMR 101 4 g + statin, Diabetes No, Week 12 endpoint
# [21] = AMR 101 4 g + statin, Diabetes Yes, Week 12 endpoint
# [22] = AMR 101 4 g + statin, Non-statin Washout No, Week 12 endpoint
# [23] = AMR 101 4 g + statin, Non-statin Washout Yes, Week 12 endpoint
# [24] = AMR 101 4 g + statin, baseline TG tertile Highest (≥289.5 mg/dL), Week 12 endpoint
# [25] = AMR 101 4 g + statin, baseline TG tertile Lowest (<230.5 mg/dL), Week 12 endpoint
# [26] = AMR 101 4 g + statin, baseline TG tertile Middle (230.5 to <289.5 mg/dL), Week 12 endpoint
# [27] = IPE 4 g/day (n = 216), 12 weeks, patients with lipoprotein data
smiles,measurement,setting,value
"CC/C=C\C/C=C\C/C=C\C/C=C\C/C=C\CCCC(=O)OCC [AMR101, ethyl eicosapentaenoate]",Median reduction in triglycerides compared to baseline,2 g/day,2.6%
same,Percentage Achieving TG Goal (less than 150 mg/dL),2 g/day,3.8%
same,"Subjects who Achieved TG Goal (less than 150 mg/dL), number","2 g/day, Week 12, total n 234",9
same,Median reduction in triglycerides compared to baseline,4 g/day,17.5%
same,Percentage Achieving TG Goal (less than 150 mg/dL),4 g/day,7.1%
same,"Subjects who Achieved TG Goal (less than 150 mg/dL), number","4 g/day, Week 12, total n 226",16
same,TG Median % chg from BL,[1],−0.5%
same,"TG, Diff from pbo (Hodges-Lehmann median difference)",[1],−2.4
same,"TG, EOT (Week 12 endpoint) median",[1],245.0
same,TG Median % chg from BL,[2],−5.8%
same,"TG, Diff from pbo (Hodges-Lehmann median difference)",[2],−5.7
same,"TG, EOT (Week 12 endpoint) median",[2],252.5
same,TG Median % chg from BL,[3],−8.8%
same,"TG, Diff from pbo (Hodges-Lehmann median difference)",[3],−14.3
same,"TG, EOT (Week 12 endpoint) median",[3],241.3
same,TG Median % chg from BL,[4],−5.8%
same,"TG, Diff from pbo (Hodges-Lehmann median difference)",[4],−11.7
same,"TG, EOT (Week 12 endpoint) median",[4],239.5
same,TG Median % chg from BL,[5],−18.8%
same,"TG, Diff from pbo (Hodges-Lehmann median difference)",[5],−13.8
same,"TG, EOT (Week 12 endpoint) median",[5],208.5
same,TG Median % chg from BL,[6],−5.3%
same,"TG, Diff from pbo (Hodges-Lehmann median difference)",[6],−8.7
same,"TG, EOT (Week 12 endpoint) median",[6],248.0
same,"TG Diff from pbo (median % chg, Hodges-Lehmann)",[7],−10.8%
same,TG EOT Median,[7],245.0 mg/dL
same,TG Median % chg from BL,[7],−12.1%
same,"TG Diff from pbo (median % chg, Hodges-Lehmann)",[8],−9.8%
same,TG EOT Median,[8],244.0 mg/dL
same,TG Median % chg from BL,[8],−1.5%
same,"TG Diff from pbo (median % chg, Hodges-Lehmann)",[9],−10.7%
same,TG EOT Median,[9],229.0 mg/dL
same,TG Median % chg from BL,[9],−7.9%
same,"TG Diff from pbo (median % chg, Hodges-Lehmann)",[10],−9.5%
same,TG EOT Median,[10],249.5 mg/dL
same,TG Median % chg from BL,[10],−4.2%
same,"TG Diff from pbo (median % chg, Hodges-Lehmann)",[11],−16.9%
same,TG EOT Median,[11],320.3 mg/dL
same,TG Median % chg from BL,[11],−8.7%
same,"TG Diff from pbo (median % chg, Hodges-Lehmann)",[12],−4.1%
same,TG EOT Median,[12],207.8 mg/dL
same,TG Median % chg from BL,[12],0.7%
same,"TG Diff from pbo (median % chg, Hodges-Lehmann)",[13],−9.9%
same,TG EOT Median,[13],228.3 mg/dL
same,TG Median % chg from BL,[13],−13.0%
same,"Fasting Triglycerides, Week 12 EP Median (IQR)","AMR101 2 g/d + statin, n 234",244.3 (117.0)
same,"Fasting Triglycerides, Percent change from Baseline, Median (IQR)",AMR101 2g/d + statin,−5.6 (34.5) %
same,"Fasting Triglycerides, Difference from placebo, Estimated median",AMR101 2g/d + statin,−10.1
same,TG Median % chg from BL,[14],−23.9%
same,"TG, Diff from pbo (Hodges-Lehmann median difference)",[14],−28.4
same,"TG, EOT (Week 12 endpoint) median",[14],216.0
same,TG Median % chg from BL,[15],−20.5%
same,"TG, Diff from pbo (Hodges-Lehmann median difference)",[15],−23.4
same,"TG, EOT (Week 12 endpoint) median",[15],204.0
same,TG Median % chg from BL,[16],−14.7%
same,"TG, Diff from pbo (Hodges-Lehmann median difference)",[16],−18.8
same,"TG, EOT (Week 12 endpoint) median",[16],228.0
same,TG Median % chg from BL,[17],−20.2%
same,"TG, Diff from pbo (Hodges-Lehmann median difference)",[17],−26.0
same,"TG, EOT (Week 12 endpoint) median",[17],214.5
same,TG Median % chg from BL,[18],0.5%
same,"TG, Diff from pbo (Hodges-Lehmann median difference)",[18],−13.1
same,"TG, EOT (Week 12 endpoint) median",[18],256.8
same,TG Median % chg from BL,[19],−15.8%
same,"TG, Diff from pbo (Hodges-Lehmann median difference)",[19],−20.1
same,"TG, EOT (Week 12 endpoint) median",[19],221.0
same,"TG Diff from pbo (median % chg, Hodges-Lehmann)",[20],−16.8%
same,TG EOT Median,[20],234.5 mg/dL
same,TG Median % chg from BL,[20],−15.0%
same,"TG Diff from pbo (median % chg, Hodges-Lehmann)",[21],−23.2%
same,TG EOT Median,[21],216.5 mg/dL
same,TG Median % chg from BL,[21],−18.7%
same,"TG Diff from pbo (median % chg, Hodges-Lehmann)",[22],−20.8%
same,TG EOT Median,[22],220.0 mg/dL
same,TG Median % chg from BL,[22],−16.7%
same,"TG Diff from pbo (median % chg, Hodges-Lehmann)",[23],−22.4%
same,TG EOT Median,[23],220.8 mg/dL
same,TG Median % chg from BL,[23],−17.7%
same,"TG Diff from pbo (median % chg, Hodges-Lehmann)",[24],−31.1%
same,TG EOT Median,[24],260.0 mg/dL
same,TG Median % chg from BL,[24],−21.8%
same,"TG Diff from pbo (median % chg, Hodges-Lehmann)",[25],−14.4%
same,TG EOT Median,[25],183.5 mg/dL
same,TG Median % chg from BL,[25],−10.9%
same,"TG Diff from pbo (median % chg, Hodges-Lehmann)",[26],−17.9%
same,TG EOT Median,[26],205.0 mg/dL
same,TG Median % chg from BL,[26],−19.3%
same,"Fasting Triglycerides, Week 12 EP Median (IQR)","AMR101 4 g/d + statin, n 226",220.8 (92.0)
same,"Fasting Triglycerides, Percent change from Baseline, Median (IQR)",AMR101 4g/d + statin,−17.5 (31.0) %
same,"Fasting Triglycerides, Difference from placebo, Estimated median",AMR101 4g/d + statin,−21.5
same,"TG, Change From Baseline, % (median)",[27],−17.5%
same,"TG, End of Treatment (median)",[27],219.3 mg/dL
same,"TG, Median Change From Baseline IPE 4 g/day vs Placebo, %","IPE 4 g/day vs placebo, 12 weeks, Hodges-Lehmann median",−21.1%

# — patent US11285127B2, “Compositions and methods for lowering triglycerides without raising LDL-C levels in a subject on concomitant statin therapy” (Amarin Pharmaceuticals Ireland Limited, priority 2013, dated 2022)
